Patent publication US20140200134A1, “Anthranilamide Compounds and their use as Pesticides” (BASF SE, priority 2011, published 2014)

How the values were obtained:
Format in all cases: in vivo
[1] = tested on: Boll weevil (Anthonomus grandis); test: Boll weevil microtiter plate diet test; conditions: 120 h, sprayed onto insect diet, egg and larval mortality after 5 days, read-out: mortality in comparison with untreated controls
Method: B.8 Boll weevil (Anthonomus grandis)
For evaluating control of boll weevil (Anthonomus grandis) the test unit consisted of 96-well-microtiter plates containing an insect diet and 20-30 A. grandis eggs.
(§1) The compounds were formulated using a solution containing 75% v/v water and 25% v/v DMSO. Different concentrations of formulated compounds were sprayed onto the insect diet at 5 μl, using a custom built micro atomizer, at two replications.
After application, microtiter plates were incubated at about 25±1° C. and about 75±5% relative humidity for 5 days. Egg and larval mortality was then visually assessed.

[2] = tested on: Cowpea aphid (aphis craccivora); test: Cowpea aphid spray test on potted cowpea plants; conditions: sprayed cowpea plants, assessed after 72 hours, read-out: mortality in comparison with untreated controls
Method: B.1 Cowpea aphid (aphis craccivora)
The active compound was dissolved at the desired concentration in a mixture of 1:1 (vol:vol) distilled water:acetone. Surfactant (Alkamuls® EL 620) was added at a rate of 0.1% (vol/vol). The test solution was prepared at the day of use.
Potted cowpea plants were colonized with approximately 50-100 aphids of various stages by manually transferring a leaf tissue cut from infested plant 24 hours before application. Plants were sprayed after the pest population had been recorded. Treated plants were maintained on light carts at about 28° C. Percent mortality was assessed after 72 hours.

[3] = tested on: Mediterranean fruitfly (Ceratitis capitata); test: Mediterranean fruitfly microtiter plate diet test; conditions: 120 h, sprayed onto insect diet, egg and larval mortality after 5 days, read-out: mortality in comparison with untreated controls
Method: B.3 Mediterranean fruitfly (Ceratitis capitata)
For evaluating control of Mediterranean fruitfly (CeratitiS capitate) the test unit consisted of microtiter plates containing an insect diet and 50-80 C. capitata eggs.
as §1
After application, microtiter plates were incubated at about 28±1° C. and about 80±5% relative humidity for 5 days. Egg and larval mortality was then visually assessed.

[4] = tested on: Vetch aphid (Megoura viciae); test: Vetch aphid broad bean leaf disk microtiter test; conditions: foliar, 120 h, sprayed broad bean leaf disks, adult aphids, 5 days, read-out: mortality in comparison with untreated controls
Method: B.6 Vetch aphid (Megoura viciae)
For evaluating control of vetch aphid (Megoura viciae) through contact or systemic means the test unit consisted of 24-well-microtiter plates containing broad bean leaf disks. The compounds were formulated using a solution containing 75% v/v water and 25% v/v DMSO. Different concentrations of formulated compounds were sprayed onto the leaf disks at 2.5 μl, using a custom built micro atomizer, at two replications.
After application, the leaf disks were air-dried and 5-8 adult aphids placed on the leaf disks inside the microtiter plate wells. The aphids were then allowed to suck on the treated leaf disks and incubated at about 23±1° C. and about 50±5% relative humidity for 5 days. Aphid mortality and fecundity was then visually assessed.

[5] = tested on: Green Peach Aphid (Myzus persicae); test: Green peach aphid spray test on bell pepper plants; conditions: 120 h, sprayed infested bell pepper plants, after 5 days, read-out: mortality in comparison with untreated controls
Text: B.9 Green Peach Aphid (Myzus persicae)
(§2) The active compounds were formulated in cyclohexanone as a 10,000 ppm solution supplied in tubes. The tubes were inserted into an automated electrostatic sprayer equipped with an atomizing nozzle and they served as stock solutions for which lower dilutions were made in 50% acetone:50% water (v/v). A nonionic surfactant (Kinetic®) was included in the solution at a volume of 0.01% (v/v).
Bell pepper plants at the first true-leaf stage were infested prior to treatment by placing heavily infested leaves from the main colony on top of the treatment plants. Aphids were allowed to transfer overnight to accomplish an infestation of 30-50 aphids per plant and the host leaves were removed. The infested plants were then sprayed by an automated electrostatic plant sprayer equipped with an atomizing spray nozzle. The plants were dried in the sprayer fume hood, removed, and then maintained in a growth room under fluorescent lighting in a 24-hr photoperiod at about 25° C. and about 20-40% relative humidity. Aphid mortality on the treated plants, relative to mortality on untreated control plants, was determined after 5 days.

[6] = tested on: Orchid thrips (dichromothrips corbetti); test: Orchid thrips floral-immersion test; conditions: dipped orchid flowers, adult thrips, 72 hours after treatment, read-out: mortality in comparison with untreated controls
Method: B.4 Orchid thrips (dichromothrips corbetti)
Dichromothrips corbetti adults used for bioassay were obtained from a colony maintained continuously under laboratory conditions. For testing purposes, the test compound was diluted in a 1:1 mixture of acetone:water (vol:vol), plus 0.01% vol/vol Alkamuls® EL 620 surfactant.
Thrips potency of each compound was evaluated by using a floral-immersion technique. Plastic petri dishes were used as test arenas. All petals of individual, intact orchid flowers were dipped into treatment solution and allowed to dry. Treated flowers were placed into individual petri dishes along with about 20 adult thrips. The petri dishes were then covered with lids. All test arenas were held under continuous light and a temperature of about 28° ° C. for duration of the assay. After 3 days, the numbers of live thrips were counted on each flower, and along inner walls of each petri dish. The percent mortality was recorded 72 hours after treatment.

[7] = tested on: Tobacco budworm (Heliothis virescens); test: Tobacco budworm foliar spray test on cotton plants; conditions: 96 h, sprayed cotton plants, larvae, 4 days after treatment, read-out: mortality in comparison with untreated controls
Method: B.7 Tobacco budworm (Heliothis virescens) I
as §2
Cotton plants were grown 2 plants to a pot and selected for treatment at the cotyledon stage. Test solutions were sprayed onto the foliage by an automated electrostatic plant sprayer equipped with an atomizing spray nozzle. The plants were dried in the sprayer fume hood and then removed from the sprayer. Each pot was placed into perforated plastic bags with a zip closure. About 10 to 11 budworm larvae were placed into the bag and the bags zipped closed. Test plants were maintained in a growth room at about 25° C. and about 20-40% relative humidity for 4 days, avoiding direct exposure to fluorescent light (24 hour photoperiod) to prevent trapping of heat inside the bags. Mortality and reduced feeding were assessed 4 days after treatment, compared to untreated control plants.

[8] = tested on: Diamond back moth (plutella xylostella); test: Diamond back moth cabbage leaf-dip test; conditions: dipped cabbage leaves, 3rd instar larvae, 72 hours after treatment, read-out: mortality in comparison with untreated controls
Method: B.2 Diamond back moth (plutella xylostella)
The active compound was dissolved at the desired concentration in a mixture of 1:1 (vol:vol) distilled water:acteone. Surfactant (Alkamuls® EL 620) was added at a rate of 0.1% (vol/vol). The test solution was prepared at the day of use.
Leaves of cabbage were dipped in test solution and air-dried. Treated leaves were placed in petri dishes lined with moist filter paper and inoculated with ten 3rd instar larvae. Mortality was recorded 72 hours after treatment. Feeding damages were also recorded using a scale of 0-100%.

CNC(=O)c1cc(-n2cncn2)cc(C)c1NC(=O)c1ccc(C(F)(F)F)cc1-c1ncccc1Cl [Compound 1-2, 2-[[2-(3-chloro-2-pyridyl)-4-(trifluoromethyl)benzoyl]amino]N,3-dimethyl-5-(1,2,4-triazol-1-yl)benzamide]
> 75%: mortality at 2500 ppm [1] | mortality at 500 ppm [2] | mortality at 2500 ppm [3] | mortality at 2500 ppm [4] | mortality at 2500 ppm [5] | mortality at 500 ppm [6] | mortality at 2500 ppm [7]

CNC(=O)c1cc(/C=N/OC)cc(C)c1NC(=O)c1ccc(C(F)(F)F)cc1-c1ncccc1Cl [Compound 1-1, 2-[[2-(3-chloro-2-pyridyl)-4-(trifluoromethyl)benzoyl]amino]-5-[(E)-methoxyiminomethyl]-N,3-dimethyl-benzamide]
> 75%: mortality at 2500 ppm [1] | mortality at 500 ppm [2] | mortality at 2500 ppm [3] | mortality at 2500 ppm [4] | mortality at 500 ppm [8] | mortality at 2500 ppm [5] | mortality at 500 ppm [6] | mortality at 2500 ppm [7]

CNC(=O)c1cc(/C=N/NC(N)=O)cc(C)c1NC(=O)c1ccc(C(F)(F)F)cc1-c1ncccc1Cl [Compound 1-3, 5-[(E)-(carbamoylhydrazono)methyl]-2-[[2-(3-chloro-2-pyridyl)-4-(trifluoromethyl)benzoyl]amino]-N,3-dimethyl-benzamide]
> 75%: mortality at 500 ppm [2] | mortality at 2500 ppm [5] | mortality at 2500 ppm [7]
